“And” between values parts separate entries of the source, which are not always exact repeats. Identical values can stand only once.
What was measured:
[1] = test system: non-constipation IBS; assay: Study 1 (TARGET 1): rifaximin 550 mg TID 14 days vs placebo in non-C IBS, 10-week follow-up; assay type: in vivo, human
Description: A measure of efficacy is based on subjects' answers to the Weekly Subject Global Assessment (SGA) questions over the study duration in relation to their IBS symptoms.
Additionally subjects having a stool consistency score of <4 and at least a 1 point reduction in average daily IBS score were identified. […]
(§1) In TARGET 1 and 2, the primary endpoint was the proportion of patients who achieved adequate relief of IBS symptoms for at least 2 of 4 weeks during the month following 14 days of treatment. Adequate relief was defined as a response of “yes” to the following weekly Subject Global Assessment (SGA) question: “In regards to your IBS symptoms, compared to the way you felt before you started study medication, have you, in the past 7 days, had adequate relief of your IBS symptoms? [Yes/No]”
The key secondary endpoint was the proportion of patients who achieved adequate relief of IBS-related bloating for at least 2 of 4 weeks during the month following 2 weeks of treatment. Adequate relief of IBS-related bloating was defined as a response of “yes” to the following weekly (every 7 days) SGA question: “In regards to your IBS symptom of bloating, compared to the way you felt before you started study medication, have you, in the past 7 days, had adequate relief of your IBS symptom of bloating?
The trials examined a composite endpoint which defined responders by IBS-related abdominal pain and stool consistency measures. Patients were responders if they experienced a ≥30% decrease from baseline in abdominal pain for ≥2 weeks during the month following 2 weeks of treatment. […] Patients were monthly responders if they met criteria for BOTH abdominal pain and stool consistency ≥2 weeks per month. […] (See Table 60.)

[2] = test system: non-constipation IBS; assay: Study 2 (TARGET 2): rifaximin 550 mg TID 14 days vs placebo in non-C IBS, 10-week follow-up; assay type: in vivo, human; conditions: 550 mg TID
Protocol: The primary efficacy endpoint of the study was the proportion of subjects who achieved adequate relief of IBS symptoms for at least 2 weeks during the first 4 weeks of the 10-week follow-up phase.
Two measures of efficacy were assessed.
Subjects were questioned on the relief of overall IBS symptoms and bloating. […] The analyses defined success as a “yes” response to questions regarding adequate relief. […]
All subpopulations in the study responded to therapy. Baseline severity was determined during screening for Abdominal Pain/Discomfort and Bloating, and the number, type (normal, hard, loose) and urgency of bowel movements. Duration of effect was assessed in a ten week follow-up period. […]
as §1
The key secondary endpoint was the proportion of patients who achieved adequate relief of IBS-related bloating for at least 2 of 4 weeks during the month following 2 weeks of treatment. Adequate relief of IBS-related bloating was defined as a response of “yes” to the following weekly (every 7 days) SGA question: “In regards to your IBS symptom of bloating, compared to the way you felt before you started study medication, have you, in the past 7 days, had adequate relief of your IBS symptom of bloating? […]

[3] = Study 1, at least 2 weeks during PEP
[4] = TARGET 1, month following two weeks of treatment, 550 mg TID, N = 309
[5] = Weeks 3-6, Population: PP (N = 311)
[6] = at least 2 of Weeks 3-6, N = 315, LOCF
[7] = Age Group: <65 (N = 281), Weeks 3-6
[8] = Gender: Female (N = 226), Weeks 3-6

For CO[C@H]1/C=C/O[C@@]2(C)Oc3c(C)c(O)c4c(O)c(c5c(nc6cc(C)ccn65)c4c3C2=O)NC(=O)/C(C)=C\C=C\[C@H](C)[C@H](O)[C@@H](C)[C@@H](O)[C@@H](C)[C@H](OC(C)=O)[C@@H]1C [Rifaximin, (2S,16Z,18E,20S,21S,22R,23R,24R,25S,26S,27S,28E)-5,6,21,23,25 Pentahydroxy-27-methoxy-2,4,11,16,20,22,24,26-octamethyl-2,7-(epoxypentadeca-(1,11,13)trienimino) benzofuro (4,5-e) pyrido(1,2-a) benzimidazole-1,15(2H)-dione,25-acetate], the “IBS symptom of bloating: adequate relief at least 2 out of 4 weeks during weeks 3 through 6 (weekly question)” value ([1]; Study 1 / TARGET 1) was 40%, the “Global IBS symptoms: adequate relief at least 2 out of 4 weeks during weeks 3 through 6 (weekly question)” value ([1]; Study 1 / TARGET 1, 550 mg TID 14 d) was 41% and 31% vs 41% and the “Responders: abdominal pain reduction of 1 point in weekly mean” value [1, 3] was 52%. The “Responders: abdominal pain reduction of 1 point in weekly median” value [1, 3] was 63%, the “Responders: abdominal pain reduction of 2 point in mean” value [1, 3] was 26% and the “Responders: abdominal pain reduction of 2 point in median” value [1, 3] was 37%. For the same compound, the “Responders: abdominal pain reduction of 3 point in mean” value [1, 3] was 6% vs 7%, the “Responders: abdominal pain reduction of 3 point in median” value [1, 3] was 22% and the “Responders: daily abdominal pain < 2 for at least 50% of days in a week” value [1, 3] was 40%. For the same compound, the “Responders: overall reduction of mean weekly abdominal pain by >= 25%” value [1, 3] was 56%, the “Responders: overall reduction of mean weekly abdominal pain by >= 50%” value [1, 3] was 36% and the “Responders: overall reduction of mean weekly abdominal pain by >= 75%” value [1, 3] was 14%. The “Responders: overall reduction of median weekly abdominal pain by >= 25%” value [1, 3] was 63%, the “Responders: overall reduction of median weekly abdominal pain by >= 50%” value [1, 3] was 44% and the “Responders: overall reduction of median weekly abdominal pain by >= 75%” value [1, 3] was 23%. For the same compound, the “Abdominal Pain Responders: %” value [1, 4] was 51%, the “Abdominal Pain Responders: n” value [1, 4] was 159 and the “Abdominal Pain and Stool Consistency Responders: %” value [1, 4] was 47%. For the same compound, the “Abdominal Pain and Stool Consistency Responders: n” value [1, 4] was 144, the “Adequate Relief of IBS Symptoms: %” value [1, 4] was 41% and the “Adequate Relief of IBS Symptoms: n” value [1, 4] was 126. For the same compound, the “Adequate Relief of IBS-Related Bloating: %” value [1, 4] was 40%, the “Adequate Relief of IBS-Related Bloating: n” value [1, 4] was 122 and the “Stool Consistency Responders: %” value [1, 4] was 79%. For the same compound, the “Stool Consistency Responders: n” value [1, 4] was 244, the “Monthly responders for abdominal pain (≥30% decrease) and stool consistency (score <4)” value ([1]; TARGET 1, ≥2 weeks in month following 2 weeks of treatment) was 47% and the “Subjects with skin or subcutaneous tissue disorders” value [2] was 1.3%. The “Adequate relief of IBS symptom of bloating based on daily measures, Failure” value ([2]; Population: ITT (N = 315)) was 182 (57.8%) N (%), the “Adequate relief of IBS symptom of bloating based on daily measures, Success” value ([2]; Population: ITT (N = 315)) was 133 (42.2%) N (%) and the “Adequate relief of IBS symptoms based on daily measures, Failure” value ([2]; Population: ITT (N = 315)) was 200 (63.5%) N (%). For the same compound, the “Adequate relief of IBS symptoms based on daily measures, Success” value ([2]; Population: ITT (N = 315)) was 115 (36.5%) N (%), the “Adequate relief of IBS symptom of bloating based on daily measures, Failure” value ([2]; Population: PP (N = 311)) was 180 (57.9%) N (%) and the “Adequate relief of IBS symptom of bloating based on daily measures, Success” value ([2]; Population: PP (N = 311)) was 131 (42.1%) N (%). For the same compound, the “Adequate relief of IBS symptoms based on daily measures, Failure” value ([2]; Population: PP (N = 311)) was 196 (63.0%) N (%), the “Adequate relief of IBS symptoms based on daily measures, Success” value ([2]; Population: PP (N = 311)) was 115 (37.0%) N (%) and the “Adequate relief of IBS symptom of bloating (weekly SGA), Failure” value [2, 5] was 187 (60.1%) N (%). For the same compound, the “Adequate relief of IBS symptom of bloating (weekly SGA), Success” value [2, 5] was 124 (39.9%) N (%), the “Adequate relief of IBS symptoms (weekly SGA), Failure” value [2, 5] was 187 (60.1%) N (%) and the “Adequate relief of IBS symptoms (weekly SGA), Success” value [2, 5] was 124 (39.9%) N (%). The “Adequate relief of IBS symptom of bloating (weekly SGA), Failure” value [2, 6] was 190 (60.3%) n (%), the “Adequate relief of IBS symptom of bloating (weekly SGA), Success” value [2, 6] was 125 (39.7%) n (%) and the “Adequate relief of IBS symptoms (weekly SGA), Failure” value [2, 6] was 190 (60.3%) n (%). For the same compound, the “Adequate relief of IBS symptoms (weekly SGA), Success” value [2, 6] was 125 (39.7%) n (%), the “Subjects discontinued study early for Adverse Event/Serious Adverse Event” value ([2]; randomized subjects (316)) was 0 n (%) and the “Adequate relief of IBS symptom of bloating (weekly SGA), Failure” value [2, 7] was 171 (60.9%) N (%). For the same compound, the “Adequate relief of IBS symptom of bloating (weekly SGA), Success” value [2, 7] was 110 (39.1%) N (%), the “Adequate relief of IBS symptoms (weekly SGA), Failure” value [2, 7] was 171 (60.9%) N (%) and the “Adequate relief of IBS symptoms (weekly SGA), Success” value [2, 7] was 110 (39.1%) N (%). For the same compound, the “Adequate relief of IBS symptom of bloating (weekly SGA), Failure” value ([2]; Age Group: >=65, Weeks 3-6) was 16 (53.3%) N (%), the “Adequate relief of IBS symptom of bloating (weekly SGA), Success” value ([2]; Age Group: >=65, Weeks 3-6) was 14 (46.7%) N (%) and the “Adequate relief of IBS symptoms (weekly SGA), Failure” value ([2]; Age Group: >=65, Weeks 3-6) was 16 (53.3%) N (%). For the same compound, the “Adequate relief of IBS symptoms (weekly SGA), Success” value ([2]; Age Group: >=65, Weeks 3-6) was 14 (46.7%) N (%), the “Adequate relief of IBS symptom of bloating (weekly SGA), Failure” value [2, 8] was 128 (56.6%) N (%) and the “Adequate relief of IBS symptom of bloating (weekly SGA), Success” value [2, 8] was 98 (43.4%) N (%). The “Adequate relief of IBS symptoms (weekly SGA), Failure” value [2, 8] was 130 (57.5%) N (%) and the “Adequate relief of IBS symptoms (weekly SGA), Success” value [2, 8] was 96 (42.5%) N (%).

— patent US10610522B2, “Methods for retreating irritable bowel syndrome (IBS)” (Salix Pharmaceuticals, Inc., priority 2014, dated 2020)
